pIC50: −log10 of the molar value. Where two headings read alike, the source gives them in different places.
Key:
MALME-3M = assay: NCI-60 growth inhibition (sulforhodamine B); format: cell-based, human; details: MALME-3M (Melanoma), negative log of Molar conc., LCONC -8
NCI-H460 = assay: NCI-60 growth inhibition (sulforhodamine B); format: cell-based, human
NCI/ADR-RES = assay: NCI-60 growth inhibition (sulforhodamine B); format: cell-based; details: Homo sapiens, LCONC -8
M14 = assay: cells; details: Homo sapiens
PC-3 = assay: NCI-60 growth inhibition (sulforhodamine B); format: cell-based; details: Homo sapiens, PC-3, Prostate Cancer, negative log of Molar value, LCONC -8, EXPID 2301NS84
NCI-H522 = assay: NCI-60 growth inhibition (sulforhodamine B); format: cell-based, human; details: NCI-H522 (Non-Small Cell Lung Cancer), negative log of Molar conc., LCONC -8
MOLT-4 = assay: NCI-60 growth inhibition (sulforhodamine B); format: cell-based, human; details: MOLT-4 (Leukemia), negative log of Molar conc., LCONC -8
HT29 = assay: NCI-60 growth inhibition (sulforhodamine B); format: cell-based, human; details: HT29 (Colon Cancer), negative log of Molar conc., LCONC -8
OVCAR-8 = assay: NCI-60 growth inhibition (sulforhodamine B); format: cell-based, human; details: OVCAR-8 (Ovarian Cancer), negative log of Molar conc., LCONC -8
HCT-116 = assay: NCI-60 growth inhibition (sulforhodamine B); format: cell-based, human; details: HCT-116 (Colon Cancer), negative log of Molar conc., LCONC -8
SNB-19 = assay: NCI-60 growth inhibition (sulforhodamine B); format: cell-based, human; details: SNB-19 (CNS Cancer), negative log of Molar conc., LCONC -8
MDA-MB-435 = assay: NCI-60 growth inhibition (sulforhodamine B); format: cell-based, human; details: MDA-MB-435 (Melanoma), negative log of Molar conc., LCONC -8
SK-MEL-28 = assay: NCI-60 growth inhibition (sulforhodamine B); format: cell-based, human; details: SK-MEL-28 (Melanoma), negative log of Molar conc., LCONC -8
ACHN = assay: NCI-60 growth inhibition (sulforhodamine B); format: cell-based; details: Homo sapiens, Renal Cancer, negative log of Molar value
SK-OV-3 = assay: NCI-60 growth inhibition (sulforhodamine B); format: cell-based; details: Homo sapiens, SK-OV-3, Ovarian Cancer, negative log of Molar value, LCONC -8, EXPID 2301NS84
TK-10 = assay: NCI-60 growth inhibition (sulforhodamine B); format: cell-based; details: Homo sapiens, TK-10, Renal Cancer, negative log of Molar value, LCONC -8, EXPID 2301NS84
HL-60(TB) = assay: NCI-60 growth inhibition (sulforhodamine B); format: cell-based, human; details: HL-60(TB) (Leukemia), negative log of Molar conc., LCONC -8
K-562 = assay: NCI-60 growth inhibition (sulforhodamine B); format: cell-based, human; details: K-562 (Leukemia), negative log of Molar conc., LCONC -8
SK-MEL-2 = assay: NCI-60 growth inhibition (sulforhodamine B); format: cell-based, human; details: SK-MEL-2 (Melanoma), negative log of Molar conc., LCONC -8
SN12C = assay: NCI-60 growth inhibition (sulforhodamine B); format: cell-based; details: Homo sapiens, Renal Cancer, negative log of Molar value
COLO205 = assay: NCI-60 growth inhibition (sulforhodamine B); format: cell-based, human; details: COLO 205 (Colon Cancer), negative log of Molar conc., LCONC -8
[1] = Homo sapiens, read-out: GI50 NLOGVALUE
[2] = Homo sapiens, read-out: IC50 NLOGVALUE
[3] = Homo sapiens, read-out: LC50 NLOGVALUE
[4] = Homo sapiens, read-out: GI50 NLOGVALUE (converted)
[5] = Homo sapiens, read-out: IC50 NLOGVALUE (converted)
[6] = LCONC -8, EXPID 2301NS84, read-out: GI50 NLOGVALUE (converted)

## C[C@H](CN[C@@H](C(=O)Nc1ccc(-c2cnn(C)c2)cn1)c1ccccc1)c1ccc(C#N)cc1 [CPI-1612]
MALME-3M; [1]
  GI50: < 0.01 µM
MALME-3M; [2]
  pIC50: < 4.00
MALME-3M; [3]
  CC50: > 100 µM
MALME-3M
  TGI NLOGVALUE: 4
NCI-H460; Homo sapiens, NCI-H460, read-out: GI50 AVGDATA (converted)
  GI50: 14.5 µM
NCI-H460; Homo sapiens, NCI-H460 (Non-Small Cell Lung Cancer), negative log of Molar conc., LCONC -8, read-out: GI50 NLOGVALUE (converted)
  GI50: 14.1 µM
NCI-H460; Homo sapiens, NCI-H460 (Non-Small Cell Lung Cancer), negative log of Molar conc., LCONC -8, read-out: IC50 NLOGVALUE (converted)
  IC50: 20.9 µM
NCI-H460; Homo sapiens, NCI-H460 (Non-Small Cell Lung Cancer), negative log of Molar conc., LCONC -8, read-out: LC50 NLOGVALUE
  CC50: > 100 µM
NCI-H460; NCI-H460 (Non-Small Cell Lung Cancer), negative log of Molar conc., LCONC -8
  TGI NLOGVALUE: 4
NCI/ADR-RES; NCI/ADR-RES (Ovarian Cancer), negative log of Molar conc., read-out: GI50 NLOGVALUE (converted)
  GI50: 6.46 µM
NCI/ADR-RES; NCI/ADR-RES, Ovarian Cancer, negative log of Molar value, EXPID 2301NS84, read-out: IC50 NLOGVALUE (converted)
  IC50: 29.5 µM
NCI/ADR-RES; NCI/ADR-RES, Ovarian Cancer, negative log of Molar value, EXPID 2301NS84, read-out: LC50 NLOGVALUE
  CC50: > 100 µM
M14; M14, read-out: GI50 NLOGVALUE
  GI50: 0.0214 µM
M14; M14, read-out: IC50 NLOGVALUE
  pIC50: 4.35
M14; M14, read-out: LC50 NLOGVALUE
  CC50: > 100 µM
PC-3; read-out: GI50 NLOGVALUE
  GI50: < 0.01 µM
PC-3; read-out: IC50 NLOGVALUE (converted)
  IC50: 0.447 µM
PC-3; read-out: LC50 NLOGVALUE
  CC50: > 100 µM
NCI-H522; [4]
  GI50: 0.115 µM
NCI-H522; [2]
  pIC50: < 4.00
NCI-H522
  TGI NLOGVALUE: 4
MOLT-4; [1]
  GI50: < 0.01 µM
MOLT-4; [5]
  IC50: 0.0209 µM
MOLT-4
  TGI NLOGVALUE: 4.53
HT29
  TGI NLOGVALUE: 4
HT29; Homo sapiens, HT-29, read-out: GI50 NLOGVALUE (converted)
  GI50: 0.049 µM
HT29; Homo sapiens, HT-29, read-out: IC50 NLOGVALUE (converted)
  IC50: 0.437 µM
OVCAR-8; [4]
  GI50: 40.7 µM
OVCAR-8; [2]
  pIC50: < 4.00
OVCAR-8; [3]
  CC50: > 100 µM
OVCAR-8
  TGI NLOGVALUE: 4
HCT-116
  TGI NLOGVALUE: 4
HCT-116; [4]
  GI50: 11.2 µM
HCT-116; [5]
  IC50: 18.6 µM
HCT-116; [3]
  CC50: > 100 µM
SNB-19; [4]
  GI50: 0.0955 µM
SNB-19; [2]
  pIC50: < 4.00
SNB-19; [3]
  CC50: > 100 µM
SNB-19
  TGI NLOGVALUE: 4
MDA-MB-435; [4]
  GI50: 0.0479 µM
MDA-MB-435; [5]
  IC50: 50.1 µM
MDA-MB-435; [3]
  CC50: > 100 µM
MDA-MB-435
  TGI NLOGVALUE: 4
SK-MEL-28; [4]
  GI50: 14.1 µM
SK-MEL-28; [2]
  pIC50: < 4.00
SK-MEL-28; [3]
  CC50: > 100 µM
SK-MEL-28
  TGI NLOGVALUE: 4
ACHN; [6]
  GI50: 0.0129 µM
ACHN; LCONC -8, EXPID 2301NS84, read-out: IC50 NLOGVALUE (converted)
  IC50: 0.0309 µM
SK-OV-3; read-out: GI50 NLOGVALUE
  GI50: > 100 µM
SK-OV-3; read-out: IC50 NLOGVALUE
  pIC50: < 4.00
SK-OV-3; read-out: LC50 NLOGVALUE
  CC50: > 100 µM
TK-10; read-out: GI50 NLOGVALUE (converted)
  GI50: 0.132 µM
TK-10; read-out: IC50 NLOGVALUE
  pIC50: < 4.00
TK-10; read-out: LC50 NLOGVALUE
  CC50: > 100 µM
HL-60(TB)
  TGI NLOGVALUE: 4.6
HL-60(TB); [4]
  GI50: 0.0132 µM
HL-60(TB); [5]
  IC50: 15.5 µM
HL-60(TB); [3]
  CC50: > 100 µM
K-562; Homo sapiens, K562, read-out: GI50 NLOGVALUE
  GI50: < 0.01 µM
K-562; Homo sapiens, K562, read-out: IC50 NLOGVALUE
  pIC50: > 8.00
K-562; Homo sapiens, K562, read-out: LC50 NLOGVALUE
  CC50: > 100 µM
K-562
  TGI NLOGVALUE: 4
SK-MEL-2; [4]
  GI50: 0.851 µM
SK-MEL-2; [2]
  pIC50: < 4.00
SK-MEL-2; [3]
  CC50: > 100 µM
SK-MEL-2
  TGI NLOGVALUE: 4
SN12C; [6]
  GI50: 0.224 µM
SN12C; LCONC -8, EXPID 2301NS84, read-out: IC50 NLOGVALUE
  pIC50: < 4.00
SN12C; LCONC -8, EXPID 2301NS84, read-out: LC50 NLOGVALUE
  CC50: > 100 µM
COLO205
  TGI NLOGVALUE: 4
COLO205; [4]
  GI50: 0.0245 µM
COLO205; [5]
  IC50: 0.417 µM

Reference: paper doi:10.1101/2023.05.15.540887, “Comparative analysis of drug-like EP300/CREBBP acetyltransferase inhibitors” (bioRxiv, 2023)
